Article PMC10895652, “Preclinical Evaluation of Novel Positron Emission Tomography (PET) Probes for Imaging Leucine-Rich Repeat Kinase 2 (LRRK2)” (Journal of Medicinal Chemistry, 2024)
Where two headings read alike, the source gives them in different places.

Experiments:
[1] = target: LRRK2; set-up: method as in PMID 31365783, PMID 36256881, PMID 33582389, PMID 33248850; settings: saturation assays; cited from earlier work
[2] = target: T1, LRRK2 (Rattus norvegicus, UniProt F1LNJ1); assay: In vitro autoradiography in rat brain sections; type: binding; settings: blocking with 3 (10 μM)
T1 construct: from tissue; host or cells: rat brain (Sprague-Dawley rats)
T1 sequence (F1LNJ1 1-2526): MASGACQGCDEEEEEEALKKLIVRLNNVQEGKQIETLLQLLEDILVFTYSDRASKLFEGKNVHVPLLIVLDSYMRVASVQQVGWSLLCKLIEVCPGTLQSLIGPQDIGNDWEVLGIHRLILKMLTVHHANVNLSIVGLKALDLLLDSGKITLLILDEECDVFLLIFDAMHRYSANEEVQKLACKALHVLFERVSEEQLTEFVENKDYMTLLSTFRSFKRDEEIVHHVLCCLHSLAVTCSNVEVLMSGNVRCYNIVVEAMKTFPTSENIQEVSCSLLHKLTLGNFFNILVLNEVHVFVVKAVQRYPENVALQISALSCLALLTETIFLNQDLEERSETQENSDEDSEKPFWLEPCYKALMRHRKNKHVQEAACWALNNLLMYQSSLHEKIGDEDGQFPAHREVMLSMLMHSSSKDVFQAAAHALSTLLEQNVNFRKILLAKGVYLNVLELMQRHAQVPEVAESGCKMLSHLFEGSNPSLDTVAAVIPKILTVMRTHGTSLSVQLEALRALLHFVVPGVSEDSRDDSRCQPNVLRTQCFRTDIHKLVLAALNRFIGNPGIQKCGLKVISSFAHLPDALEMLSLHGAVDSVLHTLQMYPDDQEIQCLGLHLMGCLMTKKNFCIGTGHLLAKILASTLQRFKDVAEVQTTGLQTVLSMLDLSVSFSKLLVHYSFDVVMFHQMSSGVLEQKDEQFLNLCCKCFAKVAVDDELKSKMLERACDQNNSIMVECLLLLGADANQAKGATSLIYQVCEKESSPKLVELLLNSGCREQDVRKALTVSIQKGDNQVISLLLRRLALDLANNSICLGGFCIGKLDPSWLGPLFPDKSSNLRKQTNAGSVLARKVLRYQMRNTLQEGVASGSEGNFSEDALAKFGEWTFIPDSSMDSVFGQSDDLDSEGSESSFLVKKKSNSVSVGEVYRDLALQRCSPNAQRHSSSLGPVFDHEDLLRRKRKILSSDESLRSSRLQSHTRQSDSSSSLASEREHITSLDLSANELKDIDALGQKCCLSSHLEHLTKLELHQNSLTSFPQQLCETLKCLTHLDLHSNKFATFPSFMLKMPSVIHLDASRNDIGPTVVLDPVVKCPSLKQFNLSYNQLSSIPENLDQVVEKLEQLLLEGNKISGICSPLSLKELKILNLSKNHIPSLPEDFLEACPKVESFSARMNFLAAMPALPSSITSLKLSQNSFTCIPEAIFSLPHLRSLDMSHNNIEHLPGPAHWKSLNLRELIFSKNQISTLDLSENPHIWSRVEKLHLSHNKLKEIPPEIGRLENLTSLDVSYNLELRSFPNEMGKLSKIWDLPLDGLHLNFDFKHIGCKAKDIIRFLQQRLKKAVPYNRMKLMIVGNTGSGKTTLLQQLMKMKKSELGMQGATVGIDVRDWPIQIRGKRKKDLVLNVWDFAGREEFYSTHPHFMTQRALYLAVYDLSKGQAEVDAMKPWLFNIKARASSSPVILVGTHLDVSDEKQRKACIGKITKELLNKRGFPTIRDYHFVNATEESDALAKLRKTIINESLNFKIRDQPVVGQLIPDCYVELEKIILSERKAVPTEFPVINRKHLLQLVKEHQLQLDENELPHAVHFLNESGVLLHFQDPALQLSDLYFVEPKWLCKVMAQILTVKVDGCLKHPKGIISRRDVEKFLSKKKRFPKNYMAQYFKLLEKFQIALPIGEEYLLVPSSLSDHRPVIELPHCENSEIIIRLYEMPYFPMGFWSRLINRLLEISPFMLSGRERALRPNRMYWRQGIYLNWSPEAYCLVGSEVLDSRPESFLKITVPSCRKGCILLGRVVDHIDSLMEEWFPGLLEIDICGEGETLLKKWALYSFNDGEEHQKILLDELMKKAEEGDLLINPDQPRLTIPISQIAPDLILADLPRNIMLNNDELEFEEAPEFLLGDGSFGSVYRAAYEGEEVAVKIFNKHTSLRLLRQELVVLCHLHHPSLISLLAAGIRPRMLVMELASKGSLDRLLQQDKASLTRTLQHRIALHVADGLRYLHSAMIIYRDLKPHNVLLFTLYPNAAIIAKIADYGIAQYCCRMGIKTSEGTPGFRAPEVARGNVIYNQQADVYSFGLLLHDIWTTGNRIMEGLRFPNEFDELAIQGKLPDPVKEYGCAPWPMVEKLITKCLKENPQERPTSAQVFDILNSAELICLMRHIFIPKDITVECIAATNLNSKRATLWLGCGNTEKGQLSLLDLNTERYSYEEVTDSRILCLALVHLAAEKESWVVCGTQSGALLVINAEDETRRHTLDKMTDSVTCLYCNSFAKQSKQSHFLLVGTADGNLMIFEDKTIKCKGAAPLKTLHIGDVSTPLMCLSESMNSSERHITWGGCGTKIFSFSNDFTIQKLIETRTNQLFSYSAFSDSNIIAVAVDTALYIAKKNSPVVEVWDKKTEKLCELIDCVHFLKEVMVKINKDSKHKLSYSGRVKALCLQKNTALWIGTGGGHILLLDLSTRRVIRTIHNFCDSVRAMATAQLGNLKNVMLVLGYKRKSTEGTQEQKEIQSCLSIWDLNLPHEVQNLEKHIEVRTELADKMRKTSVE
Method: The general procedure for autoradiography studies was described previously with minor revision in this work.[36],[40] Brain sections from rats were preincubated with Tris-HCl buffer (50 mM), MgCl2 (1.2 mM) and CaCl2 (2 mM) solution for 20 min at ambient temperature, followed by incubation with [^11C]3 and [^18F]4 (0.48 nM). […] After incubation, brain sections were rinsed with ice-cold buffer 3 times for 2 min and dipped in cold distilled water for 10 s. The brain sections were dried with cold air and then placed on imaging plates (BAS-MS2025, GE Healthcare, NJ) for optimized contact periods. Autoradiograms were obtained and regions of interest (ROIs) were carefully drawn with the reference of naked-eye observation. Radioactivity was measured using an Amersham Typhoon 5 analyzer system and expressed as photostimulated luminescence values per unit area (PSL/mm^2) or normalized to % of radioactivity vs control.

[3] = system: LRRK2 G2019S; settings: cited from earlier work
[4] = system: THLE cells; settings: THLE cell viability; cited from earlier work
[5] = cited from earlier work; for RRCK Papp AB: molecular formula strings file
[6] = system: MDR1; settings: cited from earlier work
[7] = human liver microsomal clearance; cited from earlier work
[8] = system: LRRK2; settings: read-out: WCA IC50, cited from earlier work
[9] = system: LRRK2 WT; settings: cited from earlier work
[10] = set-up: method as in earlier work; settings: molecular formula strings file; cited from earlier work

For `CC(C)(C)Cn1ccc2c(N3CCOCC3)nc(-c3ccc(NC(=O)Nc4ccc([18F])nc4)cc3)nc21` [FMN3PU], the Kd [1] is given as 23.6 nM.
For `[18F]c1ccc(-c2c[nH]c3ncnc(N4CCOCC4)c23)cn1` [compound 2], the Kd [1] is given as 14.3 nM.
For `CN(C)c1ncnc2[nH]cc(-c3ccc([18F])nc3)c12` [compound 1], the Kd [1] is given as 6.7 nM.
With `N#[11C]c1cccc(-c2c[nH]c3ncnc(N4CCOCC4)c23)c1` [[^11C]3] the “reduction of radioactive uptake under self-blocking” value (from here on “reduction of radioactive uptake”) ([2]; cerebellum) was 83%, the “reduction of radioactive uptake” value ([2]; cerebral cortex) was 87% and the “reduction of radioactive uptake” value ([2]; hippocampus) was 87%. The “reduction of radioactive uptake” value ([2]; pons) was 64%, the “reduction of radioactive uptake” value ([2]; striatum) was 85% and the “reduction of radioactive uptake” value ([2]; thalamus) was 83%.
For `N#Cc1cccc(-c2c[nH]c3ncnc(N4CCOCC4)c23)c1` [compound 3, 3-(4-morpholino-7H-pyrrolo[2,3-d]pyrimidin-5-yl)benzonitrile], the IC50 ([3]; biochemical LRRK2 assay, n ≥ 2) is listed as 14 nM, the IC50 [4] is listed as over 223 µM and the RRCK PappAB ([5]; Table S1, unit assumed) is listed as 27 10^-6 cm/s. For the same compound, the “RRCK Papp AB” value [5] was 26.68, the “RRCK PappAB” value ([5]; passive permeability) was 26.68 1 × 10^–6 cm/s and the “MDR1 BA/AB” value ([6]; MDR1 efflux ratio) was 1.08. The “MDR1 BA/AB” value ([6]; Table S1) was 1.0, the “HLM CL” value [7] was 36 mL/min/kg and the IC50 ([8]; Table S1) was 25 nM. For the same compound, the IC50 ([9]; biochemical LRRK2 assay, n ≥ 2) was 3 nM.
For `CC(C)(C)Cn1ccc2c(N3CCOCC3)nc(-c3ccc(NC(=O)c4ccc([18F])nc4)cc3)nc21` [FMN3PA], the Kd [1] is given as 20 nM.
In the case of `N#Cc1cccc(-c2c[nH]c3ncnc(N4CCOCC4)c23)c1F` [compound 4], the LogD [10] is given as 2.072, the pKa [10] is given as 5.61 and the IC50 ([3]; Table S1) is given as 9 nM. The IC50 [4] was 162 µM, the RRCK PappAB ([5]; Table S1, unit assumed) was 29.2 10^-6 cm/s and the “RRCK Papp AB” value [5] was 29.18. For the same compound, the “RRCK PappAB” value ([5]; passive permeability) was 29.18 1 × 10^–6 cm/s, the “MDR1 BA/AB” value ([6]; MDR1 efflux ratio) was 1.10 and the “HLM CL” value [7] was 31.4 mL/min/kg. The IC50 ([8]; whole cellular LRRK2 assay, n ≥ 2) was 20 nM, the IC50 ([9]; Table S1) was 3 nM and the IC50 ([9]; biochemical LRRK2 assay, n ≥ 2) was 3.58 nM.
For `CNc1nc(Nc2ccc(C(=O)N3CCOCC3)cc2O[11CH3])ncc1C(F)(F)F` [GNE-1023, reference compound], the “RRCK PappAB” value ([5]; passive permeability) is listed as 18.2 1 × 10^–6 cm/s, the “MDR1 BA/AB” value ([6]; MDR1 efflux ratio) is listed as 1.2 and the IC50 ([9]; biochemical LRRK2 assay, n ≥ 2) is listed as 2 nM.
